Data on 26 compounds can be found in patent publication US12257247B2 (Monte Rosa Therapeutics AG, priority 2023, dated 2025).

Where two headings read alike, the source gives them in different places. Bounds are passed on as bounds.

The target in this test is T1, VAV1 (Homo sapiens, UniProt P15498+Q96SW2).
T1 construct: A heterozygous VAV1 C-terminal HiBiT knock-in pool was generated at Monte Rosa Therapeutics from a clonal Jurkat cell; endogenous in cells; host or cells: Jurkat clone stably expressing LgBiT, homozygous GSPT1-G575N; heterozygous VAV1-HiBiT knock-in pool
The test is described as follows: VAV1 degradation activity, VAV1-HiBiT knock-in Jurkat luminescence assay (Example A, Table 1). It counts as cell-based. The conditions noted are these: VAV1-HiBiT knock-in Jurkat cells; for Dmax: Jurkat. The essentials: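 Jurkat cells carrying VAV1-HiBiT knock-in, plated in RPMI/10% FBS with Endurazine live-cell substrate and pre-incubated ~16 h at 37° C. Compound dosed from 10 μM stock; luminescence read 6 and 24 h later. Response normalised to plate negative/positive controls, EC50 from 3-parameter logistic fit (hillslope 1).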
For orientation: The HiBiT peptide binds its large partner to form an active luciferase.

The mark [1] stands for this setting: luminescence read at 6 and 24 hours, read-out: VAV1 Dmax %.
The mark [2] stands for this setting: luminescence read at 6 and 24 hours, read-out: VAV1 Dmax %, class.
Setting [3] is: luminescence read at 6 and 24 hours, read-out: VAV1 DC50.
Setting [4] is: luminescence read at 6 and 24 hours, read-out: VAV1 DC50 (nM), class.

Turning to `CN1CCN(Cc2ccc(-c3cccc(C4CCC(=O)NC4=O)c3Cl)cc2)C1=O` (centres unmarked) [Compound 388, 3-(2-chloro-4′-((3-methyl-2-oxoimidazolidin-1-yl)methyl)-[1,1′-biphenyl]-3-yl)piperidine-2,6-dione], the Dmax under setting [1] worked out at 91% and the Dmax under setting [2] was above 90%. The DC50 is 16.2 nM under setting [3] and at most 100 nM under setting [4].

For `O=C1CCC(c2cccc(-c3ccc(NC(=O)C4CCOC4)cc3)c2Cl)C(=O)N1` (centres unmarked) [Compound 227, N-[4-[2-chloro-3-(2,6-dioxo-3-piperidyl)phenyl]phenyl]tetrahydrofuran-3-carboxamide], the Dmax is 77.4% under setting [1] and 60 to 90% under setting [2]. In addition, the DC50 is 81.8 nM under setting [3] and at most 100 nM under setting [4].

With `O=C1CCC(c2cccc(-c3ccc(CN4CC5CCCN5CC4=O)cc3)c2Cl)C(=O)N1` (centres unmarked) [Compound 260], the Dmax reads like this: under setting [1], 83.9%; under setting [2], 60 to 90%. The DC50 runs as follows: under setting [3], 193 nM; under setting [4], 100 to 1000 nM.

As to `O=C1CC[C@@H](c2cccc(-c3ccc(Cn4ccccc4=O)cc3)c2Cl)C(=O)N1` [Compound 202, (S)-3-(2-chloro-4′-((2-oxopyridin-1(2H)-yl)methyl)-[1,1′-biphenyl]-3-yl)piperidine-2,6-dione], the Dmax was 94.6% under setting [1] and above 90% under setting [2]. Moreover, the DC50 under setting [3] came to 14.6 nM and the DC50 under setting [4] is at most 100 nM.

On to `CNc1ccc(-c2cccc(C3CCC(=O)NC3=O)c2Cl)cc1` (centres unmarked) [Compound 134, 3-(2-chloro-4′-(methylamino)-[1,1′-biphenyl]-3-yl)piperidine-2,6-dione], for which the Dmax under setting [1] amounted to 85.7% and the Dmax under setting [2] was above 90%. Further, the “VAV1 Dmax %” value (luminescence read at 6 and 24 hours) turned out to be 76.45%. Further, the DC50 under setting [3] came to 90.9 nM.

As for `CN1CCC(C)(C)N(c2ccc(-c3cccc(C4CCC(=O)NC4=O)c3Cl)cc2)C1=O` (centres unmarked) [Compound 378, 3-(2-chloro-4′-(3,6,6-trimethyl-2-oxotetrahydropyrimidin-1(2H)-yl)-[1,1′-biphenyl]-3-yl)piperidine-2,6-dione], the Dmax by setting is: under setting [1], 98.3%; under setting [2], above 90%. In addition, the DC50 is 1.56 nM under setting [3] and at most 100 nM under setting [4].

For the compound `CN1CC(=O)N(c2ccc(-c3cccc(C4CCC(=O)NC4=O)c3Cl)cc2)c2cnccc21` (centres unmarked) [Compound 334], the Dmax is 93.5% under setting [1] and above 90% under setting [2]. In addition, the DC50 was 11.1 nM under setting [3] and at most 100 nM under setting [4].

For `O=C1CCC(c2cccc(-c3ccc(OCCN4CCCC4)cc3)c2Cl)C(=O)N1` (centres unmarked) [Compound 136], the Dmax under setting [1] was 40.9% and the Dmax under setting [2] is below 60%. Also, the DC50 is, setting by setting: under setting [3], at least 10000 nM; under setting [4], above 1000 nM.

For `O=C1CCC(c2cccc(-c3ccc(N4C(=O)COCC45CC5)cc3)c2Cl)C(=O)N1` (centres unmarked) [Compound 324], the Dmax under setting [1] came to 97.8% and the Dmax under setting [2] is above 90%. The DC50 runs as follows: under setting [3], 3.46 nM; under setting [4], at most 100 nM.

In the case of `O=C1CCC(c2cccc(-c3ccc(Cc4ccccn4)cc3)c2Cl)C(=O)N1` (centres unmarked) [Compound 169, 3-(2-chloro-4′-(pyridin-2-ylmethyl)-[1,1′-biphenyl]-3-yl)piperidine-2,6-dione], the Dmax runs as follows: under setting [1], 98%; under setting [2], above 90%. The DC50 under setting [3] was determined as 5.59 nM and the DC50 under setting [4] is at most 100 nM.

`O=C1CCC(c2cccc(-c3ccc(CCn4ccccc4=O)cc3)c2Cl)C(=O)N1` (centres unmarked) [Compound 182, 3-(2-chloro-4′-(2-(2-oxopyridin-1(2H)-yl)ethyl)-[1,1′-biphenyl]-3-yl)piperidine-2,6-dione]: the Dmax was 89.3% under setting [1] and 60 to 90% under setting [2]. Also, the DC50 under setting [3] turned out to be 11.7 nM and the DC50 under setting [4] was at most 100 nM.

`Cc1cccn(Cc2ccc(-c3cccc(C4CCC(=O)NC4=O)c3Cl)cc2)c1=O` (centres unmarked) [Compound 187, 3-(2-chloro-4′-((3-methyl-2-oxopyridin-1(2H)-yl)methyl)-[1,1′-biphenyl]-3-yl)piperidine-2,6-dione]: the Dmax was 94.2% under setting [1] and above 90% under setting [2]. Further, the DC50 under setting [3] was determined as 9.75 nM and the DC50 under setting [4] was at most 100 nM.

For the compound `O=C1CCC(c2cccc(-c3ccc(N4CC5CC5C4=O)cc3)c2Cl)C(=O)N1` (centres unmarked) [Compound 319], the Dmax under setting [1] came out at 80.8% and the Dmax under setting [2] is 60 to 90%. Further, the DC50 under setting [3] turned out to be 104 nM and the DC50 under setting [4] fell in the range of 100 to 1000 nM.

Take `O=C1CCC(c2cccc(-c3ccc(N4CCCOC4=O)c(F)c3)c2Cl)C(=O)N1` (centres unmarked) [Compound 452, 3-(2-chloro-3′-fluoro-4′-(2-oxo-1,3-oxazinan-3-yl)-[1,1′-biphenyl]-3-yl)piperidine-2,6-dione]: the Dmax is, setting by setting: under setting [1], 94%; under setting [2], above 90%. For the same compound, the DC50 is, setting by setting: under setting [3], 21.5 nM; under setting [4], at most 100 nM.

`O=C1CCC(c2cccc(-c3ccc(CN4C(=O)CCCC4C(F)(F)F)cc3)c2Cl)C(=O)N1` (centres unmarked) [Compound 262]: the Dmax under setting [1] was 90.2% and the Dmax under setting [2] is above 90%. The DC50 was 32.6 nM under setting [3] and at most 100 nM under setting [4].

As to `O=C1CCC(c2cccc(-c3ccc(N4C(=O)CC5CC54)cc3)c2Cl)C(=O)N1` (centres unmarked) [Compound 478, 3-(2-chloro-4′-(3-oxo-2-azabicyclo[3.1.0]hexan-2-yl)-[1,1′-biphenyl]-3-yl)piperidine-2,6-dione], the Dmax was 70.5% under setting [1] and 60 to 90% under setting [2]. For the same compound, the DC50 was 291 nM under setting [3] and 100 to 1000 nM under setting [4].

In the case of `O=C1CCC(c2cccc(-c3ccc(-n4cccc(CC(F)(F)F)c4=O)cc3)c2Cl)C(=O)N1` (centres unmarked) [Compound 417, 3-(2-chloro-4′-(2-oxo-3-(2,2,2-trifluoroethyl)pyridin-1(2H)-yl)-[1,1′-biphenyl]-3-yl)piperidine-2,6-dione], the Dmax by setting is: under setting [1], 98.5%; under setting [2], above 90%. The DC50 by setting is: under setting [3], 6.68 nM; under setting [4], at most 100 nM.

For `O=C1CCC(c2cccc(-c3ccc(-c4cccn(CC(F)(F)F)c4=O)cc3)c2Cl)C(=O)N1` (centres unmarked) [Compound 458, 3-(2-chloro-4′-(2-oxo-1-(2,2,2-trifluoroethyl)-1,2-dihydropyridin-3-yl)-[1,1′-biphenyl]-3-yl)piperidine-2,6-dione], the Dmax was 98.6% under setting [1] and above 90% under setting [2]. The DC50 runs as follows: under setting [3], 4.79 nM; under setting [4], at most 100 nM.

In the case of `O=C1CCC(c2cccc(-c3ccc(Cc4nccc(C(F)F)n4)cc3)c2Cl)C(=O)N1` (centres unmarked) [Compound 348, 3-(2-chloro-4′-((4-(difluoromethyl)pyrimidin-2-yl)methyl)-[1,1′-biphenyl]-3-yl)piperidine-2,6-dione], the Dmax was 95.2% under setting [1] and above 90% under setting [2]. In addition, the half-maximal degradation concentration (DC50) reads like this: under setting [3], 11.7 nM; under setting [4], at most 100 nM.

As to `O=C1CCC(c2cccc(-c3cnc(-n4ccccc4=O)nc3)c2Cl)C(=O)N1` (centres unmarked) [Compound 474, 3-(2-chloro-3-(2-(2-oxopyridin-1(2H)-yl)pyrimidin-5-yl)phenyl)piperidine-2,6-dione], the Dmax runs as follows: under setting [1], 35.3%; under setting [2], below 60%. The DC50 under setting [3] is at least 10000 nM and the DC50 under setting [4] was above 1000 nM.

As for `O=C1CCC(c2cccc(-c3ccc(C4COC(=O)N4)cc3)c2Cl)C(=O)N1` (centres unmarked) [Compound 106], the Dmax under setting [1] turned out to be 14% and the Dmax under setting [2] is below 60%. Further, the DC50 is at least 10000 nM under setting [3] and above 1000 nM under setting [4].

Regarding `Cn1ccc2c1C(=O)N(Cc1ccc(-c3cccc(C4CCC(=O)NC4=O)c3Cl)cc1)CC2` (centres unmarked) [Compound 272], the Dmax reads like this: under setting [1], 96.8%; under setting [2], above 90%. The DC50 is 13.6 nM under setting [3] and at most 100 nM under setting [4].

Take `O=C1CCC(c2cccc(-c3cnc4c(c3)OCCN4)c2Cl)C(=O)N1` (centres unmarked) [Compound 494, 3-(2-chloro-3-(3,4-dihydro-2H-pyrido[3,2-b][1,4]oxazin-7-yl)phenyl)piperidine-2,6-dione]: the greatest degradation seen (Dmax) was 61.2% (luminescence read at 6 and 24 hours after compound addition, read-out: VAV1 Dmax %); 60 to 90% (luminescence read at 6 and 24 hours after compound addition, read-out: VAV1 Dmax %, class). In addition, the DC50 runs as follows: (luminescence read at 6 and 24 hours after compound addition, read-out: VAV1 DC50) 929 nM; (luminescence read at 6 and 24 hours after compound addition, read-out: VAV1 DC50 (nM), class) 100 to 1000 nM.

As to `O=C1CCC(c2cccc(-c3ccc(N4CCCC4=O)cc3)c2Cl)C(=O)N1` (centres unmarked) [Compound 162, 3-(2-chloro-4′-(2-oxopyrrolidin-1-yl)-[1,1′-biphenyl]-3-yl)piperidine-2,6-dione], the Dmax is 73.1% under setting [1] and 60 to 90% under setting [2]. For the same compound, the DC50 by setting is: under setting [3], 283 nM; under setting [4], 100 to 1000 nM.

For `O=C1CCC(c2cccc(-c3ccc(Cn4ccc(F)cc4=O)cc3)c2Cl)C(=O)N1` (centres unmarked) [Compound 170, 3-(2-chloro-4′-((4-fluoro-2-oxopyridin-1(2H)-yl)methyl)-[1,1′-biphenyl]-3-yl)piperidine-2,6-dione], the Dmax is, setting by setting: under setting [1], 94.2%; under setting [2], above 90%. Also, the DC50 under setting [3] was determined as 69.7 nM and the DC50 under setting [4] was at most 100 nM.

Turning to `Cc1ccn(Cc2ccc(-c3cccc(C4CCC(=O)NC4=O)c3Cl)cc2)c(=O)c1` (centres unmarked) [Compound 189, 3-(2-chloro-4′-((4-methyl-2-oxopyridin-1(2H)-yl)methyl)-[1,1′-biphenyl]-3-yl)piperidine-2,6-dione], the Dmax under setting [1] came out at 91.4% and the Dmax under setting [2] was above 90%. Further, the DC50 runs as follows: under setting [3], 33.7 nM; under setting [4], at most 100 nM.

By Dmax is commonly meant the largest share of the target that was removed. The DC50 is the concentration giving 50% degradation.
